{"source": "patent US20220175721A1", "about": "“TREATMENT FOR POLYCYSTIC OVARIAN SYNDROME (PCOS)” (Cadila Healthcare Limited, priority 2019, published 2022)", "format_in_all_cases": "in vivo", "key": {"[1]": {"test_system": "letrozole-induced PCOS in female Zucker fa/fa rats", "test": "Ovaries weight in letrozole-induced PCOS rats", "details": "(Ia) 4 mg/kg; for Ovaries weight, % Change Vs Vehicle Control / Ovaries weight: after 4 weeks of oral treatment, metformin 200 mg/kg; for Ovaries weight: Mean±SEM, n=6", "method": "Female Zucker fa/fa rats (6-8 weeks) were issued from animal house of Zydus research Centre and quarantined for 7 weeks. At the age of 13-15 weeks all animals were administered Letrozole (1 mg/kg/2 ml) orally for 4 weeks to induce PCOS. […] Letrozole (1 mg/kg/2 mL) treatment was continued. At the end of study, animals were sacrificed by cervical dislocation and ovaries were collected and weighed."}, "[2]": {"test_system": "letrozole-induced PCOS in female Zucker fa/fa rats", "test": "Serum LH, FSH and testosterone (ELISA) in letrozole-induced PCOS rats", "details": "(Ia) 4 mg/kg", "method": "(§1) Female Zucker fa/fa rats (6-8 weeks) were issued from animal house of Zydus research Centre and quarantined for 7 weeks. At the age of 13-15 weeks all animals were administered Letrozole (1 mg/kg/2 ml) orally for 4 weeks to induce PCOS.\n(§2) After 4 weeks of Letrozole, all animals with confirmed PCOS on basis of body weight and estrous cycle were randomized. […] Letrozole (1 mg/kg/2 mL) treatment was continued.\nAfter 4 weeks of compound of formula (Ia) treatment, Insulin was subcutaneously injected at 1.5 U/kg regular insulin and 2 g/kg glucose load was administered orally. Blood was collected 40 min following injection. Serum samples were analyzed for LH, FSH and testosterone using ELISA kit according to manufacturer's instructions."}, "[3]": {"test_system": "Letrozole-induced polycystic ovary syndrome (PCOS) in female Wistar rats", "test": "Histological count of cystic follicles in letrozole-induced PCOS rats", "method": "Sixty female Wistar rats (7-8 weeks) were issued from animal house of Zydus research Centre and quarantined for 4 weeks. At the age of 11-12 weeks all animals were randomized on body weight basis into two treatment groups, namely, vehicle (n=10) as non-PCOS or Letrozole (n=50) for PCOS. Formulated Letrozole (1 mg/kg/2 ml) were administered orally for 4 weeks to induce PCOS.\nAfter 4 weeks of Letrozole, all animals with confirmed PCOS on basis of body weight and estrous cycle were randomized. After randomization, animals were assigned to either Vehicle control or Compound of Formula (Ia) (4 mg/kg, PO) treatment (n=8). Letrozole (1 mg/kg/2 mL) treatment was continued. Rest of the animals was sacrificed.\nAt the end of treatment, animals were sacrificed by cervical dislocation and ovaries were collected in 10% formalin. Ovaries were processed and embedded in paraffin and subjected to serial sectioning at 3-5 μm using rotary microtome, and sections were transferred on glass slides and stained with haematoxylin-eosin (H and E). The evaluation was done using light microscope and grading of the tissue pathological status was done. Total numbers of cystic follicles were counted on all sections throughout each ovary."}, "[4]": {"test_system": "letrozole-induced PCOS in female Zucker fa/fa rats", "test": "Insulin tolerance test in letrozole-induced PCOS rats", "details": "(Ia) 4 mg/kg", "method": "as §1, §2\nContinuing compound of formula (Ia) treatment for next two days, insulin tolerance test was performed after 6 h fast. […] Whole blood glucose was estimated using One-touch ultra-blood glucose meter. Blood glucose levels were then estimated at 0, 15, 30, 60 and 120 min corresponding to the insulin injection."}, "[5]": {"details": "repeated dose oral treatment, alone or with metformin 200 mg/kg"}, "[6]": {"details": "after 4 weeks of oral treatment, metformin 200 mg/kg"}, "[7]": {"details": "after 4 weeks of oral treatment, metformin 200 mg/kg, Mean±SEM, n=6"}, "[8]": {"details": "4 mg/kg, individual animal mean of 6 sections"}, "[9]": {"details": "4 mg/kg, individual animal, ovary sections 1-6"}}, "note": "Values joined by “and” are separate entries in the source; they are usually repeats but may differ in a detail not shown here. Equal values may be shown once.", "data": [{"compound": "CCO[C@@H](Cc1ccc(OCCn2c(C)ccc2-c2ccc(SC)cc2)cc1)C(=O)O", "note": "[Compound of Formula (Ia), Saroglitazar Magnesium]", "values": [{"measurement": "Ovaries weight, % Change Vs Vehicle Control", "setting": "[1]", "result": "−20.7 ± 3.5", "unit": "%"}, {"measurement": "Ovaries weight", "setting": "[1]", "result": "137.2 ± 6.1", "unit": "mg"}, {"measurement": "ovary weight (in words)", "setting": "[1]; [5]", "result": "normalized"}, {"measurement": "LH/FSH ratio, % Change Vs Vehicle Control", "setting": "[2]; [6]", "result": "−17.1 ± 6.0", "unit": "%"}, {"measurement": "Serum FSH, % Change Vs Vehicle Control", "setting": "[2]; [6]", "result": "32.3 ± 4.5", "unit": "%"}, {"measurement": "Serum LH, % Change Vs Vehicle Control", "setting": "[2]; [6]", "result": "9.9 ± 7.4", "unit": "%"}, {"measurement": "Serum testosterone, % Change Vs Vehicle Control", "setting": "[2]; [6]", "result": "−61.8 ± 4.7", "unit": "%"}, {"measurement": "LH/FSH ratio", "setting": "[2]; [7]", "result": "1.2 ± 0.1"}, {"measurement": "Serum FSH", "setting": "[2]; [7]", "result": "103.1 ± 3.5", "unit": "ng/mL"}, {"measurement": "Serum LH", "setting": "[2]; [7]", "result": "121.4 ± 8.2", "unit": "ng/mL"}, {"measurement": "Serum testosterone", "setting": "[2]; [7]", "result": "1.6 ± 0.2", "unit": "ng/mL"}, {"measurement": "LH/FSH ratio (in words)", "setting": "[2]; repeated dose oral treatment", "result": "decreased"}, {"measurement": "serum FSH (in words)", "setting": "[2]; repeated dose oral treatment", "result": "increased"}, {"measurement": "serum testosterone (in words)", "setting": "[2]; [5]", "result": "decreased"}, {"measurement": "cystic follicles, Mean of ovary sections, Animal-9", "setting": "[3]; [8]", "result": 3.50}, {"measurement": "cystic follicles, Mean of ovary sections, Animal-10", "setting": "[3]; [8]", "result": 3.50}, {"measurement": "cystic follicles, Mean of ovary sections, Animal-11", "setting": "[3]; [8]", "result": 7.50}, {"measurement": "cystic follicles, Mean of ovary sections, Animal-12", "setting": "[3]; [8]", "result": 3.83}, {"measurement": "cystic follicles, Mean of ovary sections, Animal-13", "setting": "[3]; [8]", "result": 2.00}, {"measurement": "cystic follicles, Mean of ovary sections, Animal-14", "setting": "[3]; [8]", "result": 4.67}, {"measurement": "cystic follicles, Mean of ovary sections, Animal-15", "setting": "[3]; [8]", "result": 3.83}, {"measurement": "cystic follicles, Mean of ovary sections, Animal-16", "setting": "[3]; [8]", "result": 9.50}, {"measurement": "cystic follicles per ovary section, Animal-9", "setting": "[3]; [9]", "result": "4 (3×) and 3 (3×)"}, {"measurement": "cystic follicles per ovary section, Animal-10", "setting": "[3]; [9]", "result": "3 (3×) and 4 (3×)"}, {"measurement": "cystic follicles per ovary section, Animal-11", "setting": "[3]; [9]", "result": "7 (3×) and 8 (3×)"}, {"measurement": "cystic follicles per ovary section, Animal-12", "setting": "[3]; [9]", "result": "4 and 3 (3×) and 5 (2×)"}, {"measurement": "cystic follicles per ovary section, Animal-13", "setting": "[3]; [9]", "result": 2}, {"measurement": "cystic follicles per ovary section, Animal-14", "setting": "[3]; [9]", "result": "5 (4×) and 4 (2×)"}, {"measurement": "cystic follicles per ovary section, Animal-15", "setting": "[3]; [9]", "result": "4 and 3 (3×) and 5 (2×)"}, {"measurement": "cystic follicles per ovary section, Animal-16", "setting": "[3]; [9]", "result": "11 (3×) and 10 and 2 and 12"}, {"measurement": "Number of cystic follicle, % Change Vs Vehicle control", "setting": "[3]; after 4 weeks of treatment, 4 mg/kg PO", "result": "−56.6 ± 7.9", "unit": "%"}, {"measurement": "Number of cystic follicle", "setting": "[3]; after 4 weeks of treatment, 4 mg/kg PO, Mean ± SEM, n=8", "result": "4.79 ± 0.87"}, {"measurement": "occurrence of cystic follicles (in words)", "setting": "[3]; female Wistar rats, PCOS induced using Letrozole", "result": "significantly decreased"}, {"measurement": "AUC glucose, % Change Vs Vehicle Control", "setting": "[4]; insulin tolerance test after 4 weeks of oral treatment, metformin 200 mg/kg", "result": "−37.4 ± 4.9", "unit": "%"}, {"measurement": "AUC glucose (120 min*mg/dL)", "setting": "[4]; insulin tolerance test after 4 weeks of oral treatment, metformin 200 mg/kg, Mean±SEM, n=6", "result": "6819.0 ± 535.8", "unit": "mg·min/dL"}, {"measurement": "insulin sensitivity (in words)", "setting": "[4]; [5]", "result": "significantly improved"}]}, {"compound": "CN(C)C(=N)N=C(N)N", "note": "[Metformin, reference compound]", "values": [{"measurement": "Ovaries weight, % Change Vs Vehicle Control", "setting": "[1]", "result": "−2.4 ± 4.1", "unit": "%"}, {"measurement": "Ovaries weight", "setting": "[1]", "result": "169.8 ± 11.9", "unit": "mg"}, {"measurement": "Serum FSH, % Change Vs Vehicle Control", "setting": "[2]; [6]", "result": "4.4 ± 3.6", "unit": "%"}, {"measurement": "Serum LH, % Change Vs Vehicle Control", "setting": "[2]; [6]", "result": "0.81 ± 3.1", "unit": "%"}, {"measurement": "Serum testosterone, % Change Vs Vehicle Control", "setting": "[2]; [6]", "result": "−2.4 ± 4.1", "unit": "%"}, {"measurement": "Serum FSH", "setting": "[2]; [7]", "result": "85.3 ± 3.2", "unit": "ng/mL"}, {"measurement": "Serum LH", "setting": "[2]; [7]", "result": "109.6 ± 9.2", "unit": "ng/mL"}, {"measurement": "Serum testosterone", "setting": "[2]; [7]", "result": "4.0 ± 0.9", "unit": "ng/mL"}]}]}
